Test results as given in patent US20140080908A1, “COMPOSITIONS AND METHODS FOR IMPROVING OR […]-LIKE SYMPTOMS” (PHYTO TECH CORP., priority 2012, published 2014).

Experiments:
[1] = tested on: human bone marrow cells; conditions: 1, 2.5, 5 and 7 sec time points; every time point tested; FIG. 1
[2] = tested on: C57BL/6J mice; conditions: 30 mg/kg/day orally for 3 months (90 days); compared to calcium gluconate or vehicle; p<0.05; FIG. 2A
Protocol: (§1) Vehicle (saline) was administered to the third group of mice as a control. The animals were then subject to TST and FST.

[3] = tested on: C57BL/6J mice; conditions: 30 mg/kg/day orally for 3 months (90 days); compared to calcium gluconate or vehicle; p<0.05; FIG. 2B
Protocol: In an FST, each mouse is placed in a separate acrylic glass cylinder that is filled with water (23-25° C.) to a level high enough to prevent the mouse from touching the bottom of the cylinder with his paws or tail, yet low enough to prevent the mouse from escaping through the top opening of the cylinder. The mice are thus forced to swim in the cylinders. […] FST is the most widely used as a screen for acute antidepressants, and the duration of immobility is the main parameter by which the effectiveness of an antidepressant treatment is measured.
as §1

[4] = in vivo; cited from earlier work

O=C(O)[C@H](O)[C@@H](O)CO (stereo in doubt) [calcium (2R, 3S)-2,3,4-trihydroxybutyric acid]
calcium absorption by human bone marrow cells relative to calcium gluconate [1]: approximately three times more | duration of immobility in TST [2]: significantly decreased duration of immobility | duration of immobility in FST [3]: significantly decreased duration of immobility | bioavailability compared to calcium gluconate, calcium acetate and calcium carbonate [4]: higher bioavailability
